Data as given in paper PMC8540953, “Preparation and Pharmacokinetic Characterization of an Anti-Virulence Compound Nanosuspensions” (Pharmaceutics, 2021).

Experiments:
[1] = Solubility and solution stability of CCG-211790; assay type: physicochemical; conditions: PEG/PG solution, aqueous with cosolvent or surfactant or cyclodextrin; ethanol (10%), propylene glycol (25%), PEG 400 (35%) and water (30%)
[2] = tested on: methicillin-resistant Staphylococcus aureus (MRSA); set-up: method as in PMID 33556134; conditions: cited from earlier work
[3] = cited from earlier work
[4] = In vitro dissolution in 0.5% SDS solution; assay type: physicochemical; conditions: 37 °C, 75 rpm
Experimental: The concentrations of CCG-211790 nanosuspensions were measured using an Agilent series 1100 HPLC system (Agilent Technologies, Santa Clara, CA, USA) equipped with a diode array detector. Sample separation was carried out with a Kinetex C18 column (75 mm × 3 mm, particle size 2.6 µm, Phenomenex, Torrance, CA, USA). The mobile phase was acetonitrile-water (50:50, v/v), flow rate was set to 0.5 mL/min, and column temperature to 35 °C. The injection volume was 30 µL. The absorption wavelength was set at 255 nm. CCG-211790 nanoparticles were dissolved in the mobile phase for HPLC analysis. Due to the fact that the analyte concentration was high and no other matrix was present in the sample, the HPLC method performed very well with excellent calibration linearity, reproducibility, and spike recovery. During sample analysis, ongoing quality controls were performed including a reagent blank, a duplicate sample, and spike recovery samples for every 10 samples analyzed.
The in vitro dissolution profiles of CCG-211790 bulk powder, NanoA and NanoB suspensions were examined. SDS is one of the most frequently used artificial surfactants in dissolution test to establish sink conditions for water-insoluble drugs. Therefore, a SDS solution (0.5% w/v in water) was used as the dissolution medium in this study. In each dissolution test, suspension or powder equivalent to 4 mg of CCG-211790 were directly dispersed in 500 mL dissolution medium under magnetic stirring at 75 rpm. The temperature of the dissolution medium was maintained at 37 ± 1 °C in a water bath. Sample aliquots (3 mL) were withdrawn at predetermined time points (5, 10, 20, 30, 45, and 60 min) and immediately replaced with 3 mL of fresh dissolution medium to readjust the volume to 500 mL. Undissolved particles were separated by centrifugation at 10,000× g for 5 min and the supernatant was collected for HPLC analysis. All experiments were run in triplicate.

In the case of `COc1ccc2c(c1)-c1nc(SCC(F)(F)F)n(C)c(=O)c1C(C)(C)C2` [CCG-211790, 9-methoxy-3,5,5-trimethyl-2-((2,2,2-trifluoroethyl)thio)-5,6-dihydrobenzo[h]quinazolin-4(3H)-one], the solubility [1] is given as at most 1000 µg/mL, the “biofilm formation of MRSA” value [2] is given as “inhibited” and the aqueous solubility [3] is given as “less than 50 ng/mL”. The “solubility in coconut oil” value [3] was “up to 37 mg/mL”.
Compound `COc1ccc2c(c1)-c1nc(SCC(F)(F)F)n(C)c(=O)c1C(C)(C)C2` [CCG-211790 bulk powder] has a drug release ([4]; at 5 min) of 19.6%, a drug release ([4]; at 45 min) of 63.4% and a drug release ([4]; at 60 min) of 64.3%.
